Measured values from US11684639B2, “Pharmaceutical composition for preventing and treating cell proliferative disease comprising mixture of feather of birds and scale of fish as an active ingredient” (priority 2007, dated 2023).

System: human colon cancer cells (HCT-15)
Experiment: Anticancer effect in nude mice transplanted with human colon cancer cells (tumor volume)
Type: in vivo, BALB/C nude mice
Details: G2, 2 mg/kg abdominal, once in 2 days
Procedure: The anticancer effect of the inventive composition was tested at the Chemon Preclinical Research Center (approved by the KGLP) using a nude mouse transplanted with human colon cancer cells.
7-weeks-old specific pathogen free (SPF) athymic BALB/C nude mice (SLC Japan, Japan) were weighed and grouped to 6 groups, 10 per each group, as follows: negative control group (1), positive control group (1) and test groups (4). The mice were identified by the identification label of the cage and using ear punching.
The test groups were designed as in Table 1.
Colon cancer cells (HCT15) were thawed in a constant-temperature water bath of […] as soon as possible. After mixing well with 10 mL of RPMI1640 culture medium (Sigma Aldrich, USA), centrifuge was performed at 1000 rpm for 10 minutes. The resulting cell pellet was mixed well with 5 mL of RPMI1640 culture medium containing 10% fetal bovine serum (FBS), and the cells were cultured in a cell culture flask under the condition of 37° C. and 5% CO2. The cultured cancer cells were suspended in physiological saline to a concentration of 1×10^7 cells/mL and transplanted subcutaneously to the mice, 0.3 mL (3×10^6 cells) each.
The composition prepared in Example 1 was suspended at various concentrations in sterilized, distilled water for injection (Choongwae Pharma Corporation, Korea) as excipient, ground using a grinding machine (homogenizer), and orally administered to the mice at a dose of 75 mg/kg body weight (G3), 150 mg/kg body weight (G4) or 300 mg/kg body weight (G5), respectively, for 3 weeks, twice a day. Of the test groups, the pre-administration group (G6) had been orally administered with the composition at a dose of 300 mg/kg body weight for 3 weeks, twice a day, before the transplantation of the cancer cells. Following the transplantation of the cancer cells, they were administered in the same way for 3 weeks.
In the negative control group (G1), the excipient was orally administered for 3 weeks, twice a day, instead of the inventive anticancer composition. […] The doxorubicin solution was prepared by dissolving in the excipient by a method known in the art.
During the test, the mice were kept under the condition of 23±3° C. and relative humidity of 55±15%, and access to water and feed was allowed freely.
Tumor volume was measured on days 12, 15, 19 and 22 after the inoculation of the cancer cells. Length, width and height of the tumor were measured using a vernier caliper, and the tumor volume was calculated by the following equation: Tumor volume=(Length×Width×Height)÷2 The tumor volume measurement result is given in Table 2 (unit: mm^3).

Structure (SMILES): COc1cccc2c1C(=O)c1c(O)c3c(c(O)c1C2=O)C[C@@](O)(C(=O)CO)C[C@@H]3O[C@H]1C[C@H](N)[C@H](O)[C@H](C)O1 [doxorubicin]
- Tumor volume (Day 12): 29.3 ± 16.0 mm^3
- Tumor volume (Day 15): 93.7 ± 65.9 mm^3
- Tumor volume (Day 19): 149.0 ± 77.6 mm^3
- Tumor volume (Day 22): 258.6 ± 160.1 mm^3
- tumor inhibition effect ([1-(tumor volume of administered group/tumor volume of negative control group)]x100) (day 22): 59.5%
